In article PMC5608556, “Photo-affinity labelling and biochemical analyses identify the target of trypanocidal simplified natural product analogues” (PLoS Neglected Tropical Diseases, 2017):

Key:
[1] = test system: ATP production (oxidative phosphorylation) in digitonin-permeabilised PF T. brucei; assay: ATP production assay in digitonin-permeabilised cells; format: cell-based, Trypanosoma brucei; conditions: 30 min; for Effect on ATP production from Gly-3P / Inhibition of ATP production from Gly-3P: glycerol-3-phosphate as substrate; for Effect on ATP production from Gly-3P / Effect on ATP production from succinate: malonate 5 mM, rotenone, SHAM 100 μM; for Effect on ATP production from succinate: succinate 2.5 mM as substrate; for Effect on ATP production from succinate / Inhibition of ATP production from Gly-3P: compound 1, AA, OA 200 μM, DNP 1 mM
Description: We next sought to identify the point at which ATP production was blocked using digitonin-permeabilised cells. Digitonin permeabilises the plasma membrane of trypanosomatids, but crucially, leaves the glycosomes and mitochondria intact and fully functional, allowing them to be probed with compartment-specific ATP-yielding substrates. Digitonin-permeabilised PF T. brucei were probed with succinate, which is readily transported across the PF T. brucei mitochondrial membrane by the dicarboxylic acid carrier and can yield only oxidative phosphorylation-derived ATP through the FoF1-ATP synthase (complex V).
Fig 5 Inhibition of ATP production in digitonin-permeabilsed cells. (A-C) Digitonin-permeabilised PF T. brucei were probed with substrates in the presence of inhibitors and resulting ATP production quantified by bioluminescence assay. See experimental section for details. Inhibitors were used at saturating concentrations to ensure that relevant enzyme activities were ablated. Key: NS, no substrate; NI, no inhibitor; SHAM, salicylhydroxamic acid (TAO inhibitor at 100 μM); Rotenone (complex I inhibitor at 100 μM); Malonate (complex II inhibitor at 5 mM); AA, antimycin A (complex III inhibitor at 200 μM); OA, oligomycin A (complex V inhibitor at 200 μM); DNP, 2,4-dinitrophenol (protonophore at 1 mM); Comp.1, compound 1 at 200 μM. Background relative light units (RLU) were subtracted from measurements and % ATP production normalised to the no inhibitor control. Data were averaged from three independent experiments, each performed in quadruplicate. Error bars show standard deviations. T-tests were performed against no inhibitor controls (black asterisks) and compound 1 (grey open circles) and significance values presented: p < 0.00005 (*** / °°°), p < 0.0005 (** / °°), p < 0.005 (* / °). (A) Succinate was used as a substrate to generate ATP solely through oxidative phosphorylation (OxPhos). Oxidative phosphorylation inhibitors malonate, AA, OA and DNP virtually eliminated all ATP production. […] (B) α-ketoglutarate yields 40% ATP through substrate-level phosphorylation (SubPhos) and 60% through oxidative phosphorylation. Malonate, AA, OA and DNP inhibit oxidative phosphorylation, but not substrate-level phosphorylation. […] (C) Gly-3P acts as an alternative entry site to the electron transport chain yielding ATP through oxidative phosphorylation and the glycosome (GlyPhos). Malonate has no effect, as it acts at a different entry point. AA, OA and DNP inhibit oxidative phosphorylation, but not glycosomal phosphorylation.
ATP production assays were carried out in duplicate, and three independent assays were conducted. Cells were digitonin-permeabilised as previously described. Briefly, cells were washed in PBS and permeabilised for 5 min at a density of 1x10^8 cells/mL in SoTE buffer (20 mM Tris.HCl (pH 7.5), 2 mM EDTA pH 7.5, 600 mM sorbitol) supplemented with 0.015% (w/v) digitonin. Permeabilised cells were pelleted at 5000 g for 3 min at 4°C and suspended to 8.4x10^7 cells/mL in ATP assay buffer (20 mM Tris.HCl (pH 7.4), 15 mM KH2PO4, 0.6 M sorbitol, 10 mM MgSO4, 2.5 mg/mL fatty acid-free BSA.
ATP production assays were carried out in 75 μl volumes in 96-well plates with a final PF T. brucei cell density of 6.7 x 10^7 cells/mL as previously reported. […] B-THP-Ts, antimycin A (AA) and oligomycin A (OA) were used at 200 μM, Dinitrophenol (DNP) at 1 mM, malonate at 5 mM, rotenone at 100 μM and salicylhydroxamic acid (SHAM) at 100 μM. 59.25 μL digitonin-permeabilised cells (prepared above) were added to 0.75 μl inhibitor dissolved in DMSO (or 0.75 μL DMSO without inhibitor for no inhibitor control) and incubated for 10 min to allow inhibitors to take effect. Substrate was added to 2.5 mM and incubated for 10 min. Reactions were started with the addition of ADP to 60 μM and incubated at RT for 30 min. […]

HeLa = assay: Toxicity (EC50) in HeLa cells; format: cell-based; conditions: Homo sapiens, footnote b, read-out: EC50 values Mammal HeLa
Description: Fig 1 Labelling and detection of B-THP-T target(s). (A) Structures of chamuvarinin and simplified analogues thereof as probes used in this study and their respective toxicity in selected cell lines. Bi-functional compound 3 contains a diazirine (blue) to cross-link the compound to its target and an alkyne handle (red) to which an azide-containing reporter probe can be added. Mono-functional compound 2 contains the diazirine to cross-link to its target but lacks the alkyne handle and cannot be appended with an azide reporter probe. Lead B-THP-T, compound 1, lacks both diazirine and alkyne. The additional functional groups on compounds 2 and 3 are minor alterations, which have little effect on inhibitor potency. (B) Overview of the in vivo pulse-chase photo-affinity labelling procedure. B-THP-T were incubated with live PF T. brucei cells and trafficked to their targets. Following UV-irradiation, only compounds containing a diazirine (i.e. compounds 2 and 3) could cross-link with target proteins. The subsequent “click reaction” appended the conjugated B-THP-T with a reporter probe as long as an alkyne handle was present (i.e. on compound 3). Refer to the experimental section for details. (C) Detection of Cy5.5-tagged proteins following photo-affinity labelling. Proteins were separated by SDS-PAGE and conjugated Cy5.5 was detected at 700 nm. […]

T. brucei PF = assay: Toxicity (EC50, cell viability) in procyclic form T. brucei; format: cell-based; conditions: Trypanosoma brucei, live cells, 72 h incubation, footnote a
Description: (§1) Fig 1 Labelling and detection of B-THP-T target(s). (A) Structures of chamuvarinin and simplified analogues thereof as probes used in this study and their respective toxicity in selected cell lines. Bi-functional compound 3 contains a diazirine (blue) to cross-link the compound to its target and an alkyne handle (red) to which an azide-containing reporter probe can be added. Mono-functional compound 2 contains the diazirine to cross-link to its target but lacks the alkyne handle and cannot be appended with an azide reporter probe. Lead B-THP-T, compound 1, lacks both diazirine and alkyne. The additional functional groups on compounds 2 and 3 are minor alterations, which have little effect on inhibitor potency. (B) Overview of the in vivo pulse-chase photo-affinity labelling procedure. B-THP-T were incubated with live PF T. brucei cells and trafficked to their targets. Following UV-irradiation, only compounds containing a diazirine (i.e. compounds 2 and 3) could cross-link with target proteins. The subsequent “click reaction” appended the conjugated B-THP-T with a reporter probe as long as an alkyne handle was present (i.e. on compound 3). Refer to the experimental section for details. (C) Detection of Cy5.5-tagged proteins following photo-affinity labelling. Proteins were separated by SDS-PAGE and conjugated Cy5.5 was detected at 700 nm. Lanes 1–3 correspond to usage of compounds 1–3 respectively. Several proteins in lane 3 were conjugated with Cy5.5 via labelling with bi-functional compound 3. […]
The potency of lead B-THP-T, compound 1, was determined against oxidative phosphorylation in dose-response assays in digitonin-permeabilised PF T. brucei.
Supplementary file pntd.0005886.s001.tiff: S1 Fig Dose-response of B-THP-T compounds in PF T. brucei. EC50 values were determined for compounds 1–3 in PF T. brucei. […]

T. brucei BSF = assay: Toxicity (EC50) in bloodstream form T. brucei; format: cell-based, Trypanosoma brucei; conditions: Trypanosoma brucei; bloodstream form; footnote b
Description: as §1

[2] = test system: mitochondrial membrane potential (Δψm) in live PF T. brucei; assay: MitoTracker monitoring of mitochondrial membrane potential; format: cell-based, Trypanosoma brucei; conditions: 2 h, AA and OA 2 μM, DNP 1 mM
Description: To determine which mitochondrial complex of oxidative phosphorylation was targeted by B-THP-T compounds, their effects on the mitochondrial membrane potential (Δψm) were monitored in live PF T. brucei (Fig 6A). MitoTracker Red CMXRos, like tetramethylrhodamine and safranine, accumulates in active mitochondria and the degree of accumulation is dependent on the Δψm, however, accumulation of MitoTracker Green FM is independent of the Δψm and the ratio of red/green uptake can therefore be used to determine the Δψm normalised to the number and size of mitochondria present. […] Similarly, compounds 1 and 3 elevated the mitochondrial membrane potential (by 2-3-fold), confirming that they, like OA, reduce oxidative phosphorylation by the inhibition of the FoF1-ATP synthase.
Fig 6 Effects of compounds on mitochondrial membrane potential. PF T. brucei were incubated with inhibitors and MitoTracker Red CMXRos, which is an indicator of the mitochondrial membrane potential (Δψm). (A) MitoTracker-loaded cells were imaged to qualitatively detect differences in the Δψm. […] (B) Fluorescence of MitoTracker-loaded cells were quantified using a microplate reader and normalised to MitoTracker green fluorescence.
2 x 10^6 PF T. brucei cells were incubated in 1 mL GF-SDM-79 growth media supplemented with/without inhibitors for 2 h. B-THP-Ts were used at 40 μM, AA and OA at 2 μM, DNP at 1 mM and SHAM at 100 μM. MitoTracker Red CMXRos and MitoTracker Green FM were added to 100 nM and 1 μM respectively and incubated for a further 10 min. Cells were washed in growth medium and the MitoTracker reagents chased into the mitochondrion for 10 min in fresh growth medium supplemented with inhibitors. Cells were washed again in growth medium to remove unincorporated MitoTracker reagents, pelleted, suspended in 100 μL 4% PFA in PBS, and fixed at RT in the dark for 10 min. Fixed cells were pelleted and suspended in 100 μl PBS. Cells were transferred to poly-lysine-coated slides and mounted with DAPI-containing SlowFade mounting medium (Invitrogen). Fluorescence images were collected with a DeltaVision microscope (as detailed above) to show MitoTracker localisation and comparative intensity.
1 mL of cells at 1 x 10^7 cells/mL were labelled as above. However, instead of fixing cells they were resuspended in 200 μL growth medium and transferred to 96-well plates. Fluorescences were recorded (excitation at 540/35 nm, emission at 590/10 nm for MitoTracker Red CMXRos, and excitation at 485/20 nm, emission at 528/20 nm for MitoTracker Green FM) using a BioTek FLX800 spectrofluorimeter and Gen5 Reader Control 2.0 software, in much the same way as others have recorded previously. Background fluorescence values were subtracted from each and MitoTracker Red fluorescences normalised against their MitoTracker Green FM counterparts. Membrane potentials were then calculated relative to the uninhibited controls.

Molecule	Effect on ATP production from Gly-3P [1]	Effect on ATP production from succinate [1]	EC50 (HeLa)	EC50 (T. brucei PF)	EC50 (T. brucei BSF)	Effect on mitochondrial membrane potential (Δψm) [2]	Inhibition of ATP production from Gly-3P [1]
C=C(C)[C@H]1Cc2c(ccc3c2O[C@@H]2COc4cc(OC)c(OC)cc4[C@@H]2C3=O)O1 [rotenone]	no effect	no significant effect					
OCCCC[C@H]1CC2(C[C@@H](Cn3cc([C@@H]4CCC[C@H](CCCCOCc5ccccc5)O4)nn3)O1)N=N2 [Compound 2, 4-((5S,7S)-7-((4-((2S,6S)-6-(4-(benzyloxy)butyl)tetrahydro-2H-pyran-2-yl)-1H-1,2,3-triazol-1-yl)methyl)-6-oxa-1,2-diazaspiro[2.5]oct-1-en-5-yl)butan-1-ol]			20.9 ± 3 µM	8.9 ± 0.2 µM	11.8 ± 0.8 µM		
O=[N+]([O-])c1ccc(O)c([N+](=O)[O-])c1 [2,4-dinitrophenol]		almost abolished ATP production				decrease the mitochondrial membrane potential	67 ± 13%
oligomycin A		almost abolished ATP production				elevates the Δψm	65 ± 21%
O=C(NO)c1ccccc1O [salicylhydroxamic acid]	no effect	no significant effect					
